In US20110034426A1, “Method of Preventing Renal Disease and Treating Symptoms Thereof” (WISCONSIN ALUMNI RESEARCH FOUNDATION, priority 2009, published 2011):
Entries after “also recorded” stand apart in the source; their conditions may differ.

Assays:
MRL/MpJ-Fas^lpr/J mice [1] = experiment: Proteinuria in MRL/lpr mouse model of systemic lupus erythematosus / lupus nephritis; assay type: in vivo
Description: (§1) Mice. […] Water was given ad libitum.
(§2) Proteinuria measurements. Proteinuria measurements were performed by putting gentle pressure on the bladder for spot urine analysis on a clean surface with a semi-quantitative dipstick (Combistix, Bayer). Mice were determined to have proteinuria when urinary protein output was 100 mg/dL or more. Urine was collected by placing the animals in metabolic cages and performing two-24 hr collections. Total protein was measured using a Bradford assay. (MM Bradford, Analytical Biochemistry 72: 248-254, 1976).

[2] = Growth, body weight and clinical signs in treated MRL/lpr mice; assay type: in vivo
Excerpt: as §1

MRL/MpJ-Fas^lpr/J mice [3] = experiment: Kidney and heart histology in MRL/lpr mice; assay type: in vivo
Description: as §1
Histology. Half of a kidney was preserved in cold zinc formalin fixative, embedded in paraffin, and sectioned 4 μm thick. Hematoxylin and eosin (H&E) and Masson-Goldner's trichrome were used to study histological differences between kidney samples. Von Kossa staining was performed on whole heart sections (processed as described above) to determine heart calcification. Sectioning and staining was performed by the University of Wisconsin—Madison McArdle Histology Laboratory. Micrographs in the figures were taken by an Olympus BH-2 microscope and Nikon Coolpix 990 digital camera.

MRL/MpJ-Fas^lpr/J mice [4] = experiment: Splenomegaly (spleen mass and histology) in MRL/lpr mice; assay type: in vivo
Excerpt: as §1

[5] = tested on: ⅚ths Nephrectomy Rat Model; experiment: ⅚ths Nephrectomy Rat Model (uremic rat); assay type: in vivo, Sprague-Dawley rats; conditions: uremic rats
Excerpt: ⅚ths Nephrectomy Rat Model. Disease Induction. Weanling, male Sprague-Dawley rats were obtained from Harlan (Madison, Wis.). Following a 10-13 day acclimation period, the animals had two-thirds of one kidney removed. After a week, the other entire kidney was removed. The animals were then switched from a chow diet to a purified rodent diet (Suda et al., Purified Rodent Diet-Diet 11) containing 0.6% Ca and 0.9% phosphorus and fat soluble vitamins A, D, E and K. Water and diet were provided ad libitum.
Animal Husbandry. Animals were housed in suspended, plastic shoe-box style cages with corn cob bedding (prior to surgery) or in stainless steel, wire-bottom cages (approximately one week after surgery). The animal rooms were maintained at a temperature of 68 to 72° F. and a relative humidity of 25 to 75%. The holding rooms were set to provide 12 hours of light per day.
Treatment Groups. Approximately four weeks after the second surgery, animals were assigned to treatment groups (14-15 animals/group) so that each group had the same average PTH level.
Dose Preparation (Vehicle Formulation). The negative control material was prepared by volumetrically measuring ethanol (5%) and Neobee oil, mixing and then placing in storage at 2 to 8° C.
Dose Preparation (2MD Formulation). 2MD formulations (DP001, Sigma Aldrich Fine Chemicals, Madison, Wis.) were prepared by first determining the concentration of an ethanol stock solution using UV spectrophotometry (extinction coefficient=42,000; max=252 nm). The solutions were then volumetrically added to Neobee oil so that there was no more than 5% ethanol in the final solution. If necessary, additional ethanol was added to bring the final ethanol amount to 5%. The solution was mixed and stored at 2 to 8° C.
Dose Administration Method. Both vehicle and 2MD were administered orally to the back of the tongue at 0.5 ml/kg body weight once daily for 8 weeks.
Serum Parathyroid Hormone (PTH) Levels. By “serum PTH levels” we mean the amount of PTH released by the parathyroid gland. PTH is the most important regulator of the body's calcium and phosphorus levels, and is controlled by the level of calcium in the blood. Low blood calcium levels cause increased PTH to be released, while high blood calcium levels inhibit PTH release. Normal values are 10-55 picograms per milliliter (pg/mL). Four weeks after surgery and 4 and 8 weeks after treatment initiation, blood was collected from the tail artery and the concentration of bioactive serum PTH was measured using the rat BioActive Intact PTH ELISA Kit from Immutopics, Inc. (San Clemente, Calif.).
Serum Calcium Analysis. Four weeks following surgery and 4 and 8 weeks after treatment started, blood was collected from the tail artery of each experimental animal. The blood was allowed to coagulate at room temperature and then centrifuged at 3000×g for 15 minutes. The serum was transferred to a polypropylene tube and stored frozen at −20° C. The level of calcium was determined by diluting the serum into 0.1% lanthum chloride and measuring the absorbance on an atomic absorption spectrophotometer (Perkin Elmer Model 3110, Shelton, Conn.).
Phosphorus Assay. Four weeks after surgery and 8 weeks after treatment started, blood was collected from the tail artery of each experimental animal. The blood was allowed to coagulate at room temperature and then centrifuged at 3000×g for 15 minutes. The serum was transferred to a polypropylene tube and stored frozen at −20° C. The level of phosphorus was determined using a clinical analyzer (Pentra 400, Horiba ABX Diagnostics—France; UV method using phosphomolybdate).
Creatinine Assay. Measuring serum creatinine levels is a useful and inexpensive method of evaluating renal dysfunction. Creatinine is a non-protein waste product of […] metabolism by skeletal muscle tissue. Creatinine production is continuous and is proportional to muscle mass. […]

NOD mice = experiment: NOD Mouse Model of Type I Diabetic Nephropathy; assay type: in vivo; conditions: 2MD in the diet
Description: as §2
Disease Induction. NOD mice (breeder pairs) were obtained from JAX laboratories (Bar Harbor, Me.). Weanling mice were placed on chow diet (5K52 Lab Diets) or purified diet (Suda et al., Purified Rodent Diet-Diet 11) and allowed to spontaneously develop diabetes (two consecutive measurements of plasma glucose >[…]). Water and diet were provided ad libitum.
Animal Husbandry. Animals were housed in autoclaved, plastic shoe-box style cages with corn cob bedding in groups of 2-4 animals/cage. Once mice were confirmed diabetic, the cages were changed daily. The animal rooms were maintained at a temperature of 68 to 72° F. and a relative humidity of 25 to 75%. […]
Treatment Groups. […] Once animals were determined to be diabetic, animals were assigned to treatment groups (6-12/group) so that each group would have the same average plasma glucose level at enrollment. […]

[6] = Serum calcium in treated MRL/lpr mice
Description: Mice. All mice used in this study were female MRL/MpJ-Fas^lpr/J mice either purchased directly or originally purchased from The Jackson Laboratory and bred in house. All mice involved in each study were age matched to the week of birth. All animal handling was performed according to protocol A1205 approved by the University of Wisconsin—Madison Institutional Animal Care and Use Committee. From weaning, female mice were placed on purified diet containing 0.47% calcium without 2MD until treatment initiation. The purified powder diet was prepared in agar form and administered 3 times a week. 2MD was administered through diet based on 5 g daily diet consumption per mouse. Water was given ad libitum. Blood was taken via retro-orbital bleeding method under isoflurane anesthetic. Serum was isolated from blood samples, frozen and subsequently analyzed with a benchtop clinical chemistry analyzer (Pentra 400, Horiba ABX).

MRL/MpJ-Fas^lpr/J mice [7] = conditions: 300 ng per day 1,25(OH)2D3 in diet, earlier thesis work (Kim 2009); cited from earlier work
[8] = daily oral 2MD for 8 weeks vs vehicle
[9] = daily oral 2MD vs vehicle, six weeks after treatment initiation

With `C=C1[C@H](O)CC(=C/C=C2\CCC[C@@]3(C)C2CCC3[C@@H](C)CCCC(C)(C)O)C[C@H]1O` (stereo partly drawn) [2MD, 2-methylene-19-nor-(20S)-1α,25-(OH)2D3] the “reduction in proteinuria incidence” value (MRL/MpJ-Fas^lpr/J mice [1]; 1 ng 2MD per mouse per day in diet, MRL/lpr mice) was greater than 60%, the “mean time of onset of proteinuria” value (MRL/MpJ-Fas^lpr/J mice [1]; 1 ng 2MD, MRL/lpr mice) was “delayed mean time of onset of proteinuria” and the “proteinuria (terminal incidence)” value (MRL/MpJ-Fas^lpr/J mice [1]; 5 ng 2MD/mouse/day in diet, MRL/lpr mice, treatment week 10 to 19) was “completely preventing proteinuria; also recorded: completely prevented; also recorded: sufficient to prevent proteinuria”. The “hypercalcemia and associated effects including weight loss, compared with 150 ng 1,25(OH)2D3” value ([2]; 1 ng 2MD) was “significantly less”, the “clinical symptoms of hypercalcemia” value ([2]; 5 ng 2MD) was “symptoms of hypercalcemia including unkempt fur and nervousness” and the “growth / weight loss” value ([2]; 5 ng 2MD) was “adversely affected; also recorded: Weight loss is most severe”. The growth ([2]; 0.5 and 1 ng 2MD) was “slight impact on growth; also recorded: very mild”, the lethargy or morbidity ([2]; any 2MD dose group (0.5, 1, 5 ng)) was “no lethargy or morbidity was observed” and the perivascular infiltration (MRL/MpJ-Fas^lpr/J mice [3]; 5 ng 2MD vs control) was “slight decrease; also recorded: noticeably decreased”. For the same compound, the “tubulointerstitial infiltration of leukocytes” value (MRL/MpJ-Fas^lpr/J mice [3]; 5 ng 2MD vs control) was “noticeable decrease; also recorded: substantially less”, the “glomerular damage (sclerosis, fibrosis, basement membrane thickening, mesangial proliferation)” value (MRL/MpJ-Fas^lpr/J mice [3]; 5 ng 2MD vs control, kidney histology) was “prevented” and the “interstitial fibrosis (fibrotic staining)” value (MRL/MpJ-Fas^lpr/J mice [3]; 5 ng 2MD vs control, trichrome stain) was “significantly less; also recorded: the extent and frequency was much less”. For the same compound, the “calcification in kidneys and hearts” value (MRL/MpJ-Fas^lpr/J mice [3]; 2MD treated MRL/lpr mice) was “lack of evidence of calcification; also recorded: absence of calcification artifacts”, the “spleen histology (white pulp structure)” value (MRL/MpJ-Fas^lpr/J mice [4]; 5 ng 2MD) was “helps retain the sheath-like structure; also recorded: retains some of the sheath structure” and the “splenomegaly / spleen weight (also normalized to body weight)” value (MRL/MpJ-Fas^lpr/J mice [4]; 5 ng 2MD vs 0 ng control, p<0.05) was “significantly reduced splenomegaly; also recorded: significantly decreased”. The “all markers of kidney failure” value ([5]; 2MD treatment) was “improved”, the serum creatinine [5, 8] was “lower levels” and the serum phosphorus [5, 8] was “lower levels”. The urinary protein excretion [5, 9] was “lower levels”, the urinary volume [5, 9] was “lower levels” and the “bone mineral density (total body BMD)” value ([5]; daily oral 2MD) was “improved bone mineral densities; also recorded: increased bone mineral density”. The overall survival ([5]; daily oral 2MD) was “increased overall survival”, the “serum PTH levels” value ([5]; daily oral 2MD) was “decreased PTH levels; also recorded: lower PTH levels” and the total serum calcium ([5]; dose levels of 2MD giving the positive effects) was “do not significantly raise serum calcium”. The “overall urine volume output” value (NOD mice) was “reduced; also recorded: marked improvement”, the “total urinary protein excretion” value (NOD mice) was “reduced; also recorded: marked improvement” and the serum calcium levels ([6]; 1 ng 2MD, MRL/lpr mice, throughout the study) was “within the physiologically normal range”. The serum calcium levels ([6]; 5 ng 2MD per mouse per day, MRL/lpr mice) was “without dramatically increasing”, the “serum calcium, highest measured point” value ([6]; 5 ng 2MD, MRL/lpr mice) was 12.4 mg/dL and the “serum calcium at study termination” value ([6]; 5 ng 2MD, MRL/lpr mice, week 19) was 10.9 mg/dL. The serum calcium levels ([6]; 2MD treatment (0.5, 1, 5 ng), week 10 to 19, MRL/lpr mice) was “mildly elevated”.

In the case of `C=C1/C(=C\C=C2/CCC[C@]3(C)[C@@H]([C@H](C)CCCC(C)(C)O)CC[C@@H]23)C[C@@H](O)C[C@@H]1O` [1,25(OH)2D3, 1α,25-dihydroxyvitamin D3, reference compound], the prevention of proteinuria (MRL/MpJ-Fas^lpr/J mice [1]; 300 ng 1,25(OH)2D3 compared with 5 ng 2MD) is reported as “equally effective”, the spleen mass reduction (MRL/MpJ-Fas^lpr/J mice [4]; 150 ng per day 1,25(OH)2D3) is reported as “comparable to that achieved with 5 ng 2MD treatment” and the “spleen histology, compared with 5 ng 2MD” value (MRL/MpJ-Fas^lpr/J mice [4]; 300 ng 1,25(OH)2D3) is reported as “better retention of normal spleen histology”. The “spleen mass normalized to body weight” value (MRL/MpJ-Fas^lpr/J mice [4]; 300 ng 1,25(OH)2D3) was “statistically significant reduction”, the “spleen mass, compared with 5 ng 2MD” value (MRL/MpJ-Fas^lpr/J mice [4]; 300 ng 1,25(OH)2D3) was “greater reduction in spleen mass” and the proteinuria (MRL/MpJ-Fas^lpr/J mice [7]) was “completely prevents proteinuria”.
